{"source": "patent US20160346255A1", "about": "“METHODS, AGENTS AND COMPOSITIONS FOR TREATMENT OF INFLAMMATORY CONDITIONS” (Betanien Hospital, priority 2014, published 2016)", "tested_on": "Patient with Ankylosing Spondylitis", "test": "Ankylosing spondylitis patient treated with degarelix (and earlier TNF inhibitors)", "type": "in vivo, human", "conditions": "for Glomerular filtration rate (>60): 10 Sep. 2014 56; for Creatinine (60-105 μmol/L): 10 Sep. 2014 112; for Urate (230-480 μmol/L): 10 Sep. 2014 515; for CRP: 10 Sep. 2014 <5; for BASDAI: baseline 8.7", "source_text": "Example of Treating a Patient with Ankylosing Spondylitis with a GnRH Antagonist\nDiagnosed with ankylosing spondylitis in 1984, HLAB27 positive, with repeated iridocyclitis. Used non-steroidal anti-inflammatory drugs previously. They were offered the TNFα inhibitor Golilimumab in 2010. Their disease activity score was 8.9 in October 2010 (see below for explanation of disease activity score) on initiating Golilimumab; by the June 2012 this score had reduced to 6.6, but by May 2013 the effect had worn off and their score was 7.6. May 2013, they initiated Enbrel treatment, but their disease activity increased from 7.6 to 8.3. Due to their poor response to TNFα therapy, they were offered the GnRH antagonist degarelix in September 2014.\nDisease activity in ankylosing spondylitis is measured by the BASDAI (Bath Ankylosing Spondylitis Disease Activity Index (1)), which has been extensively validated in clinical trials, 2, 3 and is one of the most commonly used outcome measures in clinical trials. This is a composite index that evaluates fatigue, axial and peripheral pain, stiffness and enthesopathy. Their BASDAI was at 8.7 at baseline. In September 2014 they received their first dose of degarelix 240 mg s.c. By 2 weeks, their BASDAI had reduced to 6.8, and by 6 weeks it had reduced to 5.8. This is the lowest BASDAI score they have ever had since we first started using this method of assessment 4 years ago in 2010. Their morning stiffness lasted 4 hours at baseline, by 6 weeks their morning stiffness had reduced to 2 hours. They had their second dose of degarelix 80 mg s.c in October 2014. Lumbar flexion and maximum arm abduction were increased after 6 weeks of treatment.\nResponse to therapy in clinical practice is defined as improvement of 2 units or 50% on a 0-10 scale of the BASDAI, and expert opinion that the treatment should be continued. Their reduction by 6 weeks was 2.9 units, and 7.1 units with an 82% BASDAI score improvement by 9 weeks, and we shall continue treatment. A BASDAI 50% improvement is defined as a major clinical response. […] For comparison, approximately 50-60% of patients achieve a BASDAI 50 by 12 weeks on TNF inhibitors (4). Their ESR has decreased from 46 mm to 23 mm, which is their lowest ESR reading in 19 years. […] By 9 weeks of GnRH antagonist therapy, their kidney function has normalized, and fasting glucose reduced from 7.4 to 6.5 mmol/L. By 3 months, the effect on their ankylosing spondylitis remained, creatinine was at 98 μmol/L, with a glomerular filtration rate of 66 ml/min/1.73 m^2 in December 2014.", "key": {"[1]": {"conditions": "ankylosing spondylitis patient, after 6 weeks"}, "[2]": {"conditions": "ankylosing spondylitis patient, by 3 months, December 2014"}, "[3]": {"conditions": "ankylosing spondylitis patient, by 6 weeks"}, "[4]": {"conditions": "ankylosing spondylitis patient, by 9 weeks"}}, "note": "Non-standard residues stand in square brackets, D forms with d. Residues, ends and D or L forms follow the SMILES beside them. *: point of attachment. dPhe(4-NHCONH2) = NC(=O)Nc1ccc(C[C@@H](N)C(=O)O)cc1; Dihydroorotyl(S) = O=C1C[C@@H](C(=O)*)NC(=O)N1; dPhe(4-Cl) = N[C@H](Cc1ccc(Cl)cc1)C(=O)O; Phe(4-NH2) = Nc1ccc(C[C@H](N)C(=O)O)cc1; d2Nal = N[C@H](Cc1ccc2ccccc2c1)C(=O)O; Lys(iPr) = CC(C)NCCCC[C@H](N)C(=O)O; d3Pal = N[C@H](Cc1cccnc1)C(=O)O", "data": [{"smiles": "CC(=O)N[C@H](Cc1ccc2ccccc2c1)C(=O)N[C@H](Cc1ccc(Cl)cc1)C(=O)N[C@H](Cc1cccnc1)C(=O)N[C@@H](CO)C(=O)N[C@@H](Cc1ccc(NC(=O)[C@@H]2CC(=O)NC(=O)N2)cc1)C(=O)N[C@H](Cc1ccc(NC(N)=O)cc1)C(=O)N[C@@H](CC(C)C)C(=O)N[C@@H](CCCCNC(C)C)C(=O)N1CCC[C@H]1C(=O)N[C@H](C)C(N)=O", "note": "[degarelix] (Ac-[d2Nal][dPhe(4-Cl)][d3Pal]S[Phe(4-NH2)](Dihydroorotyl(S))[dPhe(4-NHCONH2)]L[Lys(iPr)]P[dA]-NH2)", "values": [{"measurement": "Glucose fasting (4.0-6.0 mmol/L)", "setting": "10 Nov. 2014 (9 weeks), 10 Sep. 2014 7.4", "result": 6.5, "unit": "mmol/L"}, {"measurement": "Glomerular filtration rate (>60)", "setting": "10 Nov. 2014", "result": 65, "unit": "ml/min/1.73 m^2"}, {"measurement": "Creatinine (60-105 μmol/L)", "setting": "10 Nov. 2014", "result": 99, "unit": "µmol/L"}, {"measurement": "Urate (230-480 μmol/L)", "setting": "10 Nov. 2014", "result": 426, "unit": "µmol/L"}, {"measurement": "CRP", "setting": "10 Nov. 2014", "result": "<5"}, {"measurement": "Glomerular filtration rate (>60)", "setting": "24 Sep. 2014", "result": "55↓ ml/min/1.73 m^2"}, {"measurement": "Creatinine (60-105 μmol/L)", "setting": "24 Sep. 2014", "result": "114↑ μmol/L"}, {"measurement": "Urate (230-480 μmol/L)", "setting": "24 Sep. 2014", "result": "512↑ μmol/L"}, {"measurement": "ESR (<20 mm)", "setting": "24 Sep. 2014, 10 Sep. 2014 (start) 46", "result": "31↑ mm"}, {"measurement": "CRP", "setting": "24 Sep. 2014", "result": "<5"}, {"measurement": "ESR (<20 mm)", "setting": "27 Oct. 2014, 10 Sep. 2014 46", "result": "28↑ mm"}, {"measurement": "Glomerular filtration rate (>60)", "setting": "27 Oct. 2014", "result": "56↓ ml/min/1.73 m^2"}, {"measurement": "Creatinine (60-105 μmol/L)", "setting": "27 Oct. 2014", "result": "111↑ μmol/L"}, {"measurement": "Urate (230-480 μmol/L)", "setting": "27 Oct. 2014", "result": "495↑ μmol/L"}, {"measurement": "CRP", "setting": "27 Oct. 2014", "result": "<5"}, {"measurement": "Lumbar flexion", "setting": "[1]", "result": "increased"}, {"measurement": "Maximum arm abduction", "setting": "[1]", "result": "increased"}, {"measurement": "ASAS response achieved", "setting": "ankylosing spondylitis patient, at least 80% improvement", "result": "ASAS 80"}, {"measurement": "BASDAI", "setting": "ankylosing spondylitis patient, by 2 weeks", "result": 6.8}, {"measurement": "Creatinine", "setting": "[2]", "result": 98, "unit": "µmol/L"}, {"measurement": "Glomerular filtration rate", "setting": "[2]", "result": 66, "unit": "ml/min/1.73 m^2"}, {"measurement": "BASDAI reduction", "setting": "[3]", "result": 2.9, "unit": "units"}, {"measurement": "BASDAI", "setting": "[3]", "result": 5.8}, {"measurement": "Morning stiffness", "setting": "ankylosing spondylitis patient, by 6 weeks, baseline 4 hours", "result": 2, "unit": "h"}, {"measurement": "BASDAI reduction", "setting": "[4]", "result": 7.1, "unit": "units"}, {"measurement": "BASDAI score improvement", "setting": "[4]", "result": 82, "unit": "%"}, {"measurement": "Kidney function", "setting": "[4]", "result": "normalized"}]}]}
